From patent publication US20250387410A1, “TREATMENT OF ANTI-VEGF REFRACTORY OPHTHALMIC RETINAL EYE CONDITIONS” (Eye Co Pty Ltd., priority 2022, published 2025)
“Also recorded” adds a separate entry of the source.

How the values were obtained:
[1] = test system: C57BL/6J mice, photo-oxidative damage (PD); test: Photo-oxidative damage (PD) model of retinal degeneration, intravitreal injection; assay type: in vivo, mouse; details: for ONL thickness (OCT): 1-2 mm and 2-3 mm from the optic nerve, about 1 mg/ml in vitreous; for ONL thickness (OCT) / a-wave and b-wave ERG responses: versus controls; for a-wave and b-wave ERG responses: scotopic; for IBA1+ macrophages in the outer retina: versus control
Description: All experiments conducted were in accordance with the ARVO Statement for Use of Animals in Ophthalmic and Vision Research, and with approval from the ANU Animal Experimentation Ethics Committee (AEEC, protocol #A2014/56). C57BL/6J mice aged 60 post-natal days were used in this study. Animals were born, reared and held under dim light conditions (5 lux) prior to photo-oxidative damage.
In vivo cross-sectional and fundus images of the mouse retina were acquired using Optical Coherence Tomography (OCT).
Intravitreal injections were performed on C57BL/6J mice aged 60 post-natal days. Treatments included exposure to FA or TA dissolved in Suspension (comprised of 0.5% w/v carboxymethyl cellulose and 0.4% v/v Tween 80). The final concentration of drug in the vitreous chamber is estimated to be as 1 mg/ml.
Age-matched C57BL/6J mice (60 post-natal days) were exposed to continuous 100K lux white LED light for 5 days with access to food and water ad libitum. During this time, 1% atropine sulphate (Minims 1% atropine sulphate eye drops; Bausch and Lomb, USA) was administered to both eyes twice daily to dilate the pupils. Animals were subsequently euthanised with carbon dioxide (CO2).
Electroretinography (ERG) was used to assess the retinal function response of rodents to full-field flash stimuli under scotopic conditions. Dim-reared control and photo-oxidative damaged animals were used, using known methods.
Animals were dark-adapted overnight before the commencement of ERG experiments. Animals were anaesthetised as previously described, and all retinal recordings were undertaken in a dark room with minimal red light source.
Terminal deoxynucleotidyl transferase (Tdt) dUTP nick end labelling (TUNEL) is an established technique used to detect apoptotic and necrotic cells.
The retina was evenly divided into 8 quadrants. Each quadrant was viewed using a confocal microscope (LSM 5, Zeiss, Germany) and TUNEL^+ and IBA1^+ cells were identified and counted. Data were graphed and analysed using Prism 6 software (GraphPad Software, CA, USA).

[2] = test system: ARPE19 cells; test: MTT assay, cell viability of ARPE19 cells; assay type: cell-based, human
Description: (§1) The immortalised retinal cells used were as follows: MIO-M1 cells (Muller cell-derived; Müller 1 Moorefields, Institute of Ophthalmology, Dr A. Limb, Institute of Ophthalmology, University College, UK); ARPE19 (RPE-derived; ATCC CRL-2302, American Tissue Culture Collection, VA, USA); and 661W cells (photoreceptor-like derived; kindly gifted by Dr Muayyad R. Al-Ubaidi, Department of Cell Biology, University of Oklahoma Health Sciences Centre, Oklahoma City, OK, USA). Cells were authenticated and validated from Cell Bank Australia.
(§2) The immortalised retinal cell lines MIO-M1, 661W and ARPE19 were used to undertake the MTT assay to assess cell metabolic activity, based on the cell's availability of NAPDH. Treatments included exposure to one of FA (10-0.01 μg/μl, provided by Professor Ben Boyd, Monash University, Australia), TA (10-0.01 μg/p, Honeywell, USA) and Dexamethasone (10-0.0001 μg/μl, Sigma-Aldrich, MO, USA). All corticosteroids used in vitro were dissolved in 20% dimethyl sulfoxide (DMSO) (Sigma-Aldrich, MO, USA) and ultrapure endotoxin 0.1M PBS (Thermo Fisher Scientific, MA, USA). At the 12-hour time point following addition of the corticosteroid, 10p of MTT reagent (Roche, Switzerland) was added to each well. To protect against light, plates were wrapped in foil and stored in the dark at 37° C. for 4 hours at 5.0% CO2. Cells were monitored using a bright field Zeiss Axiovert 200 inverted microscope (Carl Zeiss Meditec, Dublin, CA. USA) for formation of insoluble purple formazan precipitate crystals in viable cells. Subsequently 100p of MTT solubilisation solution was added and once again incubated in darkness at 37° C., 5.0% CO2 for 24 hours. Quantification of the MTT assay was performed by measuring the absorbance at 570 nm using Tecan Infinite® 200 PRO (Tecan, Mannedorf, Switzerland).

[3] = test system: MIO-M1 cells; test: MTT assay, cell viability of MIO-M1 cells; assay type: cell-based, human
Description: as §1, §2

[4] = test system: Ccl2, Il-6, Il-8 expression in MIO-M1 cells; test: IL-1β stimulation of MIO-M1 cells, cytokine gene expression by QRT-PCR; assay type: cell-based, human; details: 1 μg/μl steroid, 1 ng/μl IL-1β, 12 h, versus IL-1β alone
Description: as §1
IL-1β and TNF-α were administered to MIO-M1 cells to initiate an inflammatory response in order to test the anti-inflammatory properties of the selected corticosteroids. MIO-M1 cells were grown to a cell density of 50,000 cells per well in a 24 well plate using growth media and foetal bovine serum as described (Section 2.1.1). MIO-M1 cells were challenged with either 1 ng/μl of IL-1β or TNF-α (R&D Systems, MN, USA). Experimental wells were treated with either 1 μg/μl FA, TA or Dexamethasone. […]
Following purification of RNA, cDNA was synthesized using the Bioline Tetro kit (Bioline, Australia) as per the manufacturer's instructions. Quantitative Real Time Polymerase Chain Reaction (QRT-PCR) was undertaken to profile gene expression changes in animal and cell culture samples. […] Data was analysed using the QuantStudio 12K Flex Software (Applied Biosystems, USA).

[5] = test system: 661W cells; test: MTT assay, cell viability of 661W cells; assay type: cell-based, human
Description: as §1, §2

[6] = 5 days PD, intravitreal, listed as Suspension+FA
[7] = 10-0.01 μg/μl, 12 h, compared to DMSO-only group

CC(=O)OCC(=O)[C@@]1(O)CC[C@H]2[C@@H]3CCC4=CC(=O)CC[C@]4(C)[C@@]3(F)[C@@H](O)C[C@@]21C [FA, 9-α-Fluoro-11 β. 17 α, 21-trihydroxy-4-pregnene-3, 20 dione acetate]
ONL thickness (OCT) ([1]; 5 days PD, intravitreal): significant preservation
ONL thickness (OCT) [1, 6]: significantly greater
a-wave and b-wave ERG responses ([1]; 5 days PD, intravitreal): significantly larger
a-wave and b-wave ERG responses [1, 6]: significantly higher
IBA1+ macrophages in the outer retina ([1]; 5 days PD, intravitreal): significant reduction
IBA1+ macrophages in the outer retina [1, 6]: significant decrease
TUNEL+ photoreceptors (outer retina) ([1]; 5 days PD, intravitreal, versus vehicle/controls): significantly fewer
photoreceptor survival in PD ([1]; intravitreal injection, mice): improves photoreceptor survival
viability of ARPE19 cells at 1 μg/μl ([2]; 1 μg/μl): does not significantly alter cell viability
viability of ARPE-19 cells (MTT assay) [2, 7]: do not induce toxicity; also recorded: no significant effect
viability of MIO-M1 cells at 1 μg/μl ([3]; 1 μg/μl): does not significantly alter cell viability
viability of MIO-M1 cells at the highest concentration ([3]; 10 ug/uL, compared to DMSO-only group): slight reduction
viability of MIO-M1 cells (MTT assay) [3, 7]: do not induce toxicity; also recorded: no significant effect
Ccl2, Il-6, and Il-8 expression after IL-1β stimulation [4]: drastically reduced; also recorded: suppressed to near baseline levels
viability of 661W cells at 1 μg/μl ([5]; 1 μg/μl): does not significantly alter cell viability
viability of 661W cells (MTT assay) [5, 7]: do not induce toxicity; also recorded: no significant effect
